Assay results from US6066649A, “Drug for cardiovascular diseases” (Podzuweit; Thomas, priority 1992, dated 2000).
Read-outs that look alike come from different tables or passages of the source. One block for each compound: values may come before it.

How the values were obtained:
cGMP-stimulated PDE II [1] = target: T1, cGMP-stimulated PDE II (Sus scrofa, UniProt F1SUV3); assay: Test for PDE activity, inhibition of soluble cGMP-stimulated PDE II from swine myocardium; format: biochemical; conditions: 1 μM cAMP or cGMP substrate, 25° C., pH 7.5
T1 construct: soluble cGMP-stimulated PDE II from swine myocardium; from tissue; host or cells: myocardium of male German breed swine, soluble extract, DEAE-Sepharose CL-6B peak fraction
T1 sequence (F1SUV3 1-945): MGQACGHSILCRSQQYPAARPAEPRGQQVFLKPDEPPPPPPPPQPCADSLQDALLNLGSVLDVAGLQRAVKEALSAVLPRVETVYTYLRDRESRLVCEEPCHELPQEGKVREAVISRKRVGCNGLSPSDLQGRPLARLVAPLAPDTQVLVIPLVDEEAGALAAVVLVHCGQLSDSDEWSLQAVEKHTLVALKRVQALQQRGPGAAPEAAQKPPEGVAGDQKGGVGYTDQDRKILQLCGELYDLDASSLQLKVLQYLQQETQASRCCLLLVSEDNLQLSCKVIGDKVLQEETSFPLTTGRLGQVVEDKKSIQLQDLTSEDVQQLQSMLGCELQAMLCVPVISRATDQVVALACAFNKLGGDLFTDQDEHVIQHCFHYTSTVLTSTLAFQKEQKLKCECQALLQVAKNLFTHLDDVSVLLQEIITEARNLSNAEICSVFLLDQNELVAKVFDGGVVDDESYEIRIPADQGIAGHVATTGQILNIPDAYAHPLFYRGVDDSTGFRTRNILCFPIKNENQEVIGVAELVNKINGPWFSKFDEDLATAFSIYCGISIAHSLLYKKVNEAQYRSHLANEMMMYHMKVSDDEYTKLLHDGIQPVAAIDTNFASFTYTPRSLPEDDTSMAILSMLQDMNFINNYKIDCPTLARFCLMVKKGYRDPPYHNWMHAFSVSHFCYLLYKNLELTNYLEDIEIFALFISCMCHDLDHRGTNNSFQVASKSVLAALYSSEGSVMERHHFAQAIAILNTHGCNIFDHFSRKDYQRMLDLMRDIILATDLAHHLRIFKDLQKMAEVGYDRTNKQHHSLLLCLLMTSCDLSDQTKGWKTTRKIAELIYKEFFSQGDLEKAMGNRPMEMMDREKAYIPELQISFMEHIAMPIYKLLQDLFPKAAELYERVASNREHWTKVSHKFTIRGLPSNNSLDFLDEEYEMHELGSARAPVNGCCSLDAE
Excerpt: (§1) Samples of the left ventricular papillary muscles were obtained with the consent of patient who underwent an exchange of a mitral flap in the Universitats-Krankenhaus Gieβen, FRG. The myocardium samples of pigs (male pigs of the German breed of swine, 25 to 30 kg body weight) were obtained following excision of the hearts under Nembutal anesthesia. The samples were immediately frozen in liquid nitrogen and were then pulverized in a high speed mill and pre-cooled in liquid nitrogen. The frozen tissue powder was sieved through a screen made of stainless steel (-196° C.) (mesh size: 0.315 mm) in an homogenizing buffer (4° C.) (1 ml per 100 mg of powder), comprising (final concentrations): 20 mM of bis-tris, 2 mM of EDTA, 5 mM of 2-mercaptoethanol, 2 mM of benzamidine, 50 μM of phenylmethylsulfonylfluoride, 50 mM of sodium acetate, pH 6.5. All of the following steps were conducted at 4° C. The homogenate was centrifuged at 48,000 g for 30 minutes. […]
(§2) The PDE activity was measured with an off line liquid scintillation spectrometry using HPLC. […] The enzyme activity was measured at 25° C. with 10 minute incubations. […]
(§3) The radioactive substrates and the products of the PDE reaction were determined quantitatively using a RACKBETA 1219 liquid scintillation counter (LKB Wallac, Freiburg, FRG). […]

adenosine deaminase [2] = conditions: cited from earlier work; for inhibition of adenosine deaminase: in words
[3] = tested on: other cyclic nucleotide phosphodiesterases; assay: Test for PDE activity, inhibition of the other cyclic nucleotide phosphodiesterases from swine myocardium; format: biochemical; conditions: 1 μM cAMP or cGMP substrate, 25° C., pH 7.5
Excerpt: as §1, §2, §3

ADA = conditions: in words; cited from earlier work
human ADA = conditions: read-out: K1 value for human ADA; racemic (±)-EHNA; cited from earlier work
cGMP-stimulated PDE II [4] = target: T2, cGMP-stimulated PDE II (Homo sapiens, UniProt O00408); assay: Test for PDE activity, inhibition of cytosolic cGMP-stimulated PDE II from human myocardium; format: biochemical
T2 construct: cytosolic cGMP-stimulated PDE II isoenzyme from human myocardium; from tissue; host or cells: human left ventricular papillary muscle, soluble extract, DEAE-Sepharose CL-6B peak fraction
Excerpt: (§4) Samples of the left ventricular papillary muscles were obtained with the consent of patient who underwent an exchange of a mitral flap in the Universitats-Krankenhaus Gieβen, FRG. The myocardium samples of pigs (male pigs of the German breed of swine, 25 to 30 kg body weight) were obtained following excision of the hearts under Nembutal anesthesia. The samples were immediately frozen in liquid nitrogen and were then pulverized in a high speed mill and pre-cooled in liquid nitrogen. […] All of the following steps were conducted at 4° C. The homogenate was centrifuged at 48,000 g for 30 minutes. […] The column was washed with 200 ml of buffer; and the PDE activities were eluted with a linear gradient ranging from 0.05 to 1 M of sodium acetate in buffer (flow time of the gradient: 500 minutes). The flow rate was 1 ml/min. 5 ml fractions were obtained and tested for PDE activity.
(§5) The PDE activity was measured with an off line liquid scintillation spectrometry using HPLC. […] The enzyme activity was measured at 25° C. with 10 minute incubations. The reaction was started with the addition of 50 μl of enzyme solution and terminated through injection of 20 μl of 60% perchloric acid. Aliquots of 20 μl of acidic supernatant were siphoned off and injected into an automated HPLC system (column LiChrospher RP-18e) (250×4 mm; 5 μm packing).
(§6) The data were fitted with four parameters with the aid of the sigmoidal logistic function.
(§7) The soluble PDE isoenzymes from swine and human myocardium were severed by means of anion exchange chromatography using DEAE-sepharose CL-6B. The enzyme activities were called PDE I to IV according to the nomenclature of J. A. Beavo and D. H. Reifsnyder. The PDE II activity was stimulated by means of cGMP (1 μM).

adenosine deaminase [5] = conditions: ADA and cGMP-stimulated PDE
[6] = tested on: cGMP content of the rat aorta; conditions: as a function of the dose; cited from earlier work
arrhythmias = assay: Antiarrhythmic action; conditions: in words; no test data given
[7] = cited from earlier work
mouse, rat and rabbit = conditions: cited from earlier work
PDE I = assay: Test for PDE activity, inhibition of soluble PDE I from human myocardium; format: biochemical; conditions: 1 μM cAMP or cGMP substrate, 25° C., pH 7.5
Excerpt: as §1, §2, §3

cGMP-stimulated PDE II [8] = assay: Test for PDE activity, inhibition of cytosolic cGMP-stimulated PDE II from human myocardium; format: biochemical; conditions: cGMP 1 μM; in words; swine and human myocardium
Excerpt: as §4, §5, §6, §7

T2 sequence (O00408 1-920 isoform O00408-2): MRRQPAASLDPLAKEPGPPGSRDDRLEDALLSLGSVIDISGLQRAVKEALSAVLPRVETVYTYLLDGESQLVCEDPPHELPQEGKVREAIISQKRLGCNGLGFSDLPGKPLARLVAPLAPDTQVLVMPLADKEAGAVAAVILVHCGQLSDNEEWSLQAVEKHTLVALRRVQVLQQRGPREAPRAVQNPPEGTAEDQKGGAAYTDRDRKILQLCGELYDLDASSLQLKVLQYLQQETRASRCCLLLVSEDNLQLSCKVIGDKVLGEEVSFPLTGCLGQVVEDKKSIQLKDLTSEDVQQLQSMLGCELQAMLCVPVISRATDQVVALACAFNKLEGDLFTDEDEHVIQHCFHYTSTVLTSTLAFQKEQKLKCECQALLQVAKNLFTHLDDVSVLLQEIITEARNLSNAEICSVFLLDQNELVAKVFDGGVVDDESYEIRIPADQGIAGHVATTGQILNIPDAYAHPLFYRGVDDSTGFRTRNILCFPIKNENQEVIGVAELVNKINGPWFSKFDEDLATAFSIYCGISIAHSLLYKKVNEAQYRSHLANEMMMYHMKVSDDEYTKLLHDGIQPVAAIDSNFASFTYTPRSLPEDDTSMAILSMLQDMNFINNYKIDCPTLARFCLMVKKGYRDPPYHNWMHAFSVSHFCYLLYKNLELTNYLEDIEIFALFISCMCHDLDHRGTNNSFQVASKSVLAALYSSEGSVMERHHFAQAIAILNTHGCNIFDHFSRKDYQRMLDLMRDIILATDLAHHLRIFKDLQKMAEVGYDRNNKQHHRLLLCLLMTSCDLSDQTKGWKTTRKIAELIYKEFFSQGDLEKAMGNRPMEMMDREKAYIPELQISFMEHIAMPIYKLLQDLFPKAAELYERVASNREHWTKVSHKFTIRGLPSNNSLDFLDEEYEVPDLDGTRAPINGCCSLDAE

IC50 (cGMP-stimulated PDE II [1]): 2 µM | IC50 [3]: > 100 µM | inhibition of the cGMP-stimulated enzyme at the concentration at which inhibition of the PDE isotypes I, III and IV began (cGMP-stimulated PDE II [4]; human myocardium): more than 99% | IC50 (cGMP-stimulated PDE II [4]; human myocardium, 1 μM cAMP or cGMP substrate, 25° C., pH 7.5): 0.8 µM | activity as inhibitor of PDE II compared with papaverine, on a molar basis (cGMP-stimulated PDE II [4]; in words): more active | doses having inhibiting effects on both enzymes (adenosine deaminase and cGMP-stimulated PDE) (adenosine deaminase [5]): more than 10^-7 M
Structure (SMILES): CCCCCC[C@H]([C@H](C)O)n1cnc2c(N)ncnc21 (relative stereo) [EHNA, erythro-9-(2-hydroxy-3-nonyl)-adenine]
Ki (adenosine deaminase [2]; classical competitive inhibition, first bonding step, read-out: inhibition constant K1 of the initial bonding step): 0.2 µM | Ki (adenosine deaminase [2]; fixed enzyme-inhibitor complex after rearrangement, read-out: total inhibition constant): 0.0017 µM | inhibition of adenosine deaminase (adenosine deaminase [2]): inhibiting effects both on adenosine deaminase and cGMP-stimulated PDE | concentrations of EHNA required to inhibit ADA in intact cells (ADA): much higher concentrations | Ki (human ADA): 0.004 µM

Structure (SMILES): CCCOc1ccccc1-c1nc2nn[nH]c2c(=O)[nH]1 [2-o-propoxyphenyl-8-azapurine-6-one, 1,4-dihydro-5-(2-propoxyphenyl-7H-1,2,3-triazolo[4,5-d]pyrimidine-7-one)]
inhibition of adenosine deaminase (adenosine deaminase [2]): does not inhibit the adenosine deaminase | effect on cGMP content of the rat aorta [6]: raises the cGMP content | antiarrhythmic action (arrhythmias): strong antiarrhythmic agents | solubility in acetone and ethanol and weakly basic solutions ([7]; acetone and ethanol and weakly basic solutions): dissolves in acetone and ethanol and weakly basic solutions | solubility in water ([7]; water): slightly soluble in water | acute oral LD50 (mouse, rat and rabbit; in vivo, po): 1,400-2,000 mg/kg | toxicity (mouse, rat and rabbit; in words): low toxicity | IC50 (PDE I): 8 µM

Structure (SMILES): Nc1ncnc2c1ncn2[C@@H]1O[C@H](CO)[C@@H](O)[C@H]1O [adenosine]
Km (adenosine deaminase [2]; substrate of adenosine deaminase): 20 µM

Structure (SMILES): Nc1nc2c(ncn2[C@@H]2O[C@@H]3COP(=O)(O)O[C@H]3[C@H]2O)c(=O)[nH]1 [cGMP]
effect of cGMP on PDE II activity (cGMP-stimulated PDE II [8]): stimulated
